# Test results reported in PMC10807440, “Engineering Novosphingobium aromaticivorans to produce cis,cis-muconic acid from biomass aromatics” (Applied and Environmental Microbiology, 2023).
# Experiments:
# NadCD = biological target: T1, NadCD (Novosphingobium aromaticivorans, UniProt A4XDW1); test: PCA to catechol conversion by LCMS; assay type: biochemical; settings: 1 mM PCA, 0.1 µM enzyme, crude prFMN-containing E. coli lysate needed, 50 mM HEPES, 150 mM NaCl pH 7.5, room temperature (18 h endpoint assay)
# T1 construct: gene Saro_3877; Saro_3877-78 cloned together in pVP302K (8x His tag), expressed in E. coli B834 pRARE2, Ni-NTA purified; with protocatechuate decarboxylase subunit D (4-hydroxybenzoate decarboxylase subunit D-like)
# T1 sequence (A4XDW1 1-486): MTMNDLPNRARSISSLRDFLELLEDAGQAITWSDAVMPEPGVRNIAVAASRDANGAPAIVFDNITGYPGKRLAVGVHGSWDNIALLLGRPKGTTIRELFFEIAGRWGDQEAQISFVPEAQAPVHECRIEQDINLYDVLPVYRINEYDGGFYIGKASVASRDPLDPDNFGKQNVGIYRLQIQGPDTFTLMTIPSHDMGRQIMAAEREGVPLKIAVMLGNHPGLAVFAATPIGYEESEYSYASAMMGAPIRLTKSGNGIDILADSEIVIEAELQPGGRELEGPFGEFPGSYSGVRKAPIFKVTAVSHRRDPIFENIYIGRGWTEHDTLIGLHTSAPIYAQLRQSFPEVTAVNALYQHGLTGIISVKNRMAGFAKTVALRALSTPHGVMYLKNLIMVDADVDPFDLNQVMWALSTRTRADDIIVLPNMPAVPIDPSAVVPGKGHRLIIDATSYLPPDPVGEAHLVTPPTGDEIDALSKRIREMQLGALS
# T1 sequence (A4XDW2 1-74 partner): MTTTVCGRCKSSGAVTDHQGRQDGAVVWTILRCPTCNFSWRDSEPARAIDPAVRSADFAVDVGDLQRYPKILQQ
# NaCatA = biological target: T2, NaCatA (Novosphingobium aromaticivorans, UniProt A4XFH8); test: ccMA formation by absorbance at […] nm; assay type: biochemical; settings: 100 µM catechol, 0.5 µM enzyme, 50 mM HEPES, 150 mM NaCl pH 7.5, 28°C; O2 co-substrate
# T2 construct: gene Saro_3830; pVP302K (8x His tag), expressed in E. coli B834 pRARE2 with Fe(II)SO4, Ni-NTA purified
# T2 sequence (A4XFH8 1-298): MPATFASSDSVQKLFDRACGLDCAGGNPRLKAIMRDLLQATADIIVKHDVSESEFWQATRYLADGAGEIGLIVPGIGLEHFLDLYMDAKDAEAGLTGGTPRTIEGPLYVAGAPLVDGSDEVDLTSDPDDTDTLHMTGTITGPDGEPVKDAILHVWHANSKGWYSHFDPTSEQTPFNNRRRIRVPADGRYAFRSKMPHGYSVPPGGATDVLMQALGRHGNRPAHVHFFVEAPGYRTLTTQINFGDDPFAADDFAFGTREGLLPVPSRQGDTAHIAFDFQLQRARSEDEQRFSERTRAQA
SMILES,PCA to catechol conversion by LCMS (NadCD),ccMA formation by absorbance at 260 nm (NaCatA)
O=C(O)c1ccc(O)c(O)c1 [PCA],NadCD was mixed with PCA and with the crude E. coli lysate that contained prFMN,
Oc1ccccc1O [catechol],,NaCatA catalyzes the intradiol cleavage of catechol to produce ccMA in vitro
